Earlier results on three compounds are cited in patent publication US20050256112A1, “Combination of atypical antipsychotics and 5HT-1B receptor antagonists” (Pfizer Inc, priority 2004, published 2005).

For data set [1] the following is noted: background statement.
The conditions of data set [2]: in some mammals; background statement.
The test system of a further data set is white blood cell counts. To be noted: background statement.

For `Cc1cc2c(s1)Nc1ccccc1N=C2N1CCN(C)CC1` [Olanzapine, 2-methyl-4-(4-methyl-1-piperazinyl)-10H-thieno [2,3-b][1,5] benzodiazepine], the weight gain result in data set [1] (in some cases) is listed as “up to 1 pound per week”.
For `OCCOCCN1CCN(C2=Nc3ccccc3Sc3ccccc32)CC1` [Quetiapine, 5-[2-(4-dibenzo[b,f][1,4]thiazepin-11-yl-1-piperazinyl)ethyoxy]ethanol], in data set [2], the cataract formation result was “cause cataract formation”.
On to `Cc1nc2n(c(=O)c1CCN1CCC(c3noc4cc(F)ccc34)CC1)CCCC2` [risperidone, 3-[2-[4-(6-fluoro-1,2-benzisoxazol-3-yl)piperidino]ethyl]-2-methyl-6,7,8,9-tetrahydro-4H-pyrido-[1,2-a]pyrimidin-4-one], for which, in data set [1], the “weight gain (in words)” value was “minimal”. Besides, in the data set on white blood cell counts, the “effect on white blood cell count” value was “remains unaffected”.
